From PubChem BioAssay (NCI) come the findings set out here.

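Protocol summary: plate cells (96-well), add compound at 5 concentrations, incubate 48 h, interpolate endpoints linearly. Abbreviation: GI50, concentration required for 50% inhibition of growth. TGI marks complete inhibition of growth.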

Common to all, as to test: inhibition of tumour cell growth, NCI panel, 48 h
Assay [1] relates to KM12 colon.
The subject of assay [2] is HT29 colon.
Assay [3] has as its system SK-OV-3 ovarian.
For assay [4], the system named is HS 578T breast.
Assay [5] concerns SF-295 CNS.
The test system of assay [6] is OVCAR-8 ovarian.
The subject of assay [7] is K-562 leukemia.
In assay [8] the test system is SK-MEL-5 melanoma.

On to `CCN1C(=O)CCCc2c1ccc(Nc1ncc(Cl)c(NC3[C@@H](C(N)=O)[C@@H]4C=C[C@H]3C4)n1)c2OC` (stereo partly specified), for which the GI50 is 1.87 µM in assay [1]; 0.791 µM in assay [2]; 2.39 µM in assay [3]; 1.88 µM in assay [4]; 1.45 µM in assay [5]; 1.41 µM in assay [6]. Besides, the GI50 in assay [7] was 2.16 µM; in assay [8] it was 1.45 µM. The TGI was 13.9 µM in assay [1]; 9.06 µM in assay [2]; 7.74 µM in assay [3]; 8.26 µM in assay [4]; 13.3 µM in assay [5]; 32.2 µM in assay [6]. The TGI in assay [7] is greater than 74.6 µM; in assay [8], 4.82 µM.

For the compound `COc1cccc(CSCC(=O)O)c1`, the TGI in assay [1], in assay [2], in assay [3], in assay [4], in assay [5] and in assay [6] was greater than 100 µM throughout. The TGI in assay [7] and in assay [8] was greater than 100 µM in each case.

On to `Cc1cc2cc3ccc(N(C)C)cc3nc2cc1N`, for which the GI50 is 0.439 µM in assay [1]; 0.327 µM in assay [2]; 0.552 µM in assay [3]; 0.51 µM in assay [4]; 0.273 µM in assay [5]; 0.374 µM in assay [6]. The GI50 in assay [7] was 0.418 µM; in assay [8] it was 0.767 µM. Moreover, the TGI in assay [1] is 2.18 µM; in assay [2] it was 1.76 µM; in assay [3], 3.35 µM; in assay [4], 3.48 µM; in assay [5], 2.03 µM; in assay [6], 2.36 µM. In addition, the TGI was greater than 21 µM in assay [7] and 2.25 µM in assay [8].

Regarding `COc1cccc2c1-c1c(c3ccc([N+](=O)[O-])cc3c(=O)n1CCCN)C2=O`, the GI50 in assay [1] was 2.02 µM; in assay [2], 1.24 µM; in assay [3], 11.5 µM; in assay [4], 7.62 µM; in assay [5], 3.1 µM; in assay [6] it was 1.5 µM. For the same compound, the figures for the GI50 in assay [7] and in assay [8] were 0.218 µM and 1.91 µM, respectively. For the same compound, the TGI in assay [1] was greater than 24.1 µM; in assay [2], 3.08 µM; in assay [3], 29.8 µM; in assay [4], 18.7 µM; in assay [5], 14.8 µM; in assay [6], 5.66 µM. Besides, the results for the TGI in assay [7] and in assay [8] were 1.12 µM and 7.38 µM, respectively.

For `S=C(Nc1ccc(N=Nc2ccccc2)cc1)SCc1ccccc1`, the TGI stood at 30.6 µM in assay [1]; 52.1 µM in assay [2]; 98 µM in assay [3]; 61.5 µM in assay [4]; 34.4 µM in assay [5]; 22.5 µM in assay [6]. The TGI was 39.9 µM in assay [7] and 29.6 µM in assay [8].

Turning to `CCCCCCNC(=O)Oc1ccc(/C(=C(/C)Cc2ccc(OC)cc2)c2ccc(OCCCN(C)C)cc2)cc1`, the GI50 in assay [1] is 13.9 µM; in assay [2] it was 4.4 µM; in assay [3], 16.7 µM; in assay [4] it was 15.5 µM; in assay [5] it was 14.7 µM; in assay [6], 17.3 µM. Further, the GI50 is 3.74 µM in assay [7] and 16.4 µM in assay [8]. The TGI in assay [1] amounted to 27.7 µM; in assay [2], 15.2 µM; in assay [3], 30.9 µM; in assay [4] it was 35.7 µM; in assay [5], 28.3 µM; in assay [6], 34.5 µM. For the same compound, the TGI in assay [7] came out at 19.1 µM; in assay [8], 30.1 µM.

Consider `CCOc1cc(Br)c(C(C)NC(=O)c2cccc(OC)c2)cc1OCC` (stereo unspecified), for which the GI50 is 7.32 µM in assay [1]; 5.01 µM in assay [2]; 23.1 µM in assay [3]; 15.5 µM in assay [4]; 8.3 µM in assay [5]; 25.6 µM in assay [6]. The figures for the GI50 in assay [7] and in assay [8] were 3.6 µM and 8.06 µM, respectively. Besides, the TGI in assay [1] is greater than 100 µM; in assay [2], greater than 100 µM; in assay [3], greater than 100 µM; in assay [4], greater than 96.6 µM; in assay [5], greater than 89.5 µM; in assay [6] it was greater than 100 µM. Besides, the values for the TGI in assay [7] and in assay [8] were greater than 100 µM and 34.9 µM, respectively.

As to `O=C(CN1CCN(c2cc3c(cc2F)c(=O)c(C(=O)O)cn3C2CC2)CC1)Nc1nc(-c2ccc(Cl)cc2)cs1`, the GI50 was 3.69 µM in assay [1]; 3.43 µM in assay [2]; 3.24 µM in assay [3]; 7.19 µM in assay [4]; 2.77 µM in assay [5]; 3.26 µM in assay [6]. In addition, the figures for the GI50 in assay [7] and in assay [8] were 2.95 µM and 2.76 µM, respectively. For the same compound, the TGI in assay [1] was greater than 100 µM; in assay [2] it was 29.4 µM; in assay [3], 19.1 µM; in assay [4] it was 73.7 µM; in assay [5], 29.6 µM; in assay [6] it was greater than 100 µM. In addition, the results for the TGI in assay [7] and in assay [8] were greater than 100 µM and 8.05 µM, respectively.

For `Cc1cc(Nc2nc(-c3cccnc3)nc3ccccc23)n[nH]1`, the GI50 in assay [1] was 0.206 µM; in assay [2] it was 1.57 µM; in assay [3] it was 0.956 µM; in assay [4], 0.364 µM; in assay [5], 2.72 µM; in assay [6], 9.55 µM. Besides, the results for the GI50 in assay [7] and in assay [8] were 3.07 µM and 4 µM, respectively. In addition, the TGI in assay [1] was 99.1 µM; in assay [2], 11.8 µM; in assay [3], greater than 100 µM; in assay [4], 3.74 µM; in assay [5], greater than 100 µM; in assay [6] it was greater than 100 µM. The TGI in assay [7] was greater than 100 µM; in assay [8], greater than 63.6 µM.

In the case of `COc1cc(OC)c2nccc(NCCCN(C)C)c2c1[N+](=O)[O-]`, the TGI in assay [1], in assay [2], in assay [3], in assay [4], in assay [5] and in assay [6] was greater than 100 µM in each case. The TGI in assay [7] and in assay [8] was greater than 100 µM in each case.
